{"source": "patent US9309236B2", "about": "“PI-kinase inhibitors with broad spectrum anti-infective activity” (The Board of Trustees of the Leland Stanford Junior …, priority 2011, dated 2016)", "key": {"human rhinovirus 14": {"system": "human rhinovirus 14", "assay": "Rhinovirus assay: protection of HeLa S3 cells from cytopathic effect", "assay_type": "cell-based", "details": "Rhinovirus B, HRV14"}, "PI3K C2b": {"biological_target": "PI3K C2b (Homo sapiens, UniProt O00750)", "sequence (O00750 whole entry)": "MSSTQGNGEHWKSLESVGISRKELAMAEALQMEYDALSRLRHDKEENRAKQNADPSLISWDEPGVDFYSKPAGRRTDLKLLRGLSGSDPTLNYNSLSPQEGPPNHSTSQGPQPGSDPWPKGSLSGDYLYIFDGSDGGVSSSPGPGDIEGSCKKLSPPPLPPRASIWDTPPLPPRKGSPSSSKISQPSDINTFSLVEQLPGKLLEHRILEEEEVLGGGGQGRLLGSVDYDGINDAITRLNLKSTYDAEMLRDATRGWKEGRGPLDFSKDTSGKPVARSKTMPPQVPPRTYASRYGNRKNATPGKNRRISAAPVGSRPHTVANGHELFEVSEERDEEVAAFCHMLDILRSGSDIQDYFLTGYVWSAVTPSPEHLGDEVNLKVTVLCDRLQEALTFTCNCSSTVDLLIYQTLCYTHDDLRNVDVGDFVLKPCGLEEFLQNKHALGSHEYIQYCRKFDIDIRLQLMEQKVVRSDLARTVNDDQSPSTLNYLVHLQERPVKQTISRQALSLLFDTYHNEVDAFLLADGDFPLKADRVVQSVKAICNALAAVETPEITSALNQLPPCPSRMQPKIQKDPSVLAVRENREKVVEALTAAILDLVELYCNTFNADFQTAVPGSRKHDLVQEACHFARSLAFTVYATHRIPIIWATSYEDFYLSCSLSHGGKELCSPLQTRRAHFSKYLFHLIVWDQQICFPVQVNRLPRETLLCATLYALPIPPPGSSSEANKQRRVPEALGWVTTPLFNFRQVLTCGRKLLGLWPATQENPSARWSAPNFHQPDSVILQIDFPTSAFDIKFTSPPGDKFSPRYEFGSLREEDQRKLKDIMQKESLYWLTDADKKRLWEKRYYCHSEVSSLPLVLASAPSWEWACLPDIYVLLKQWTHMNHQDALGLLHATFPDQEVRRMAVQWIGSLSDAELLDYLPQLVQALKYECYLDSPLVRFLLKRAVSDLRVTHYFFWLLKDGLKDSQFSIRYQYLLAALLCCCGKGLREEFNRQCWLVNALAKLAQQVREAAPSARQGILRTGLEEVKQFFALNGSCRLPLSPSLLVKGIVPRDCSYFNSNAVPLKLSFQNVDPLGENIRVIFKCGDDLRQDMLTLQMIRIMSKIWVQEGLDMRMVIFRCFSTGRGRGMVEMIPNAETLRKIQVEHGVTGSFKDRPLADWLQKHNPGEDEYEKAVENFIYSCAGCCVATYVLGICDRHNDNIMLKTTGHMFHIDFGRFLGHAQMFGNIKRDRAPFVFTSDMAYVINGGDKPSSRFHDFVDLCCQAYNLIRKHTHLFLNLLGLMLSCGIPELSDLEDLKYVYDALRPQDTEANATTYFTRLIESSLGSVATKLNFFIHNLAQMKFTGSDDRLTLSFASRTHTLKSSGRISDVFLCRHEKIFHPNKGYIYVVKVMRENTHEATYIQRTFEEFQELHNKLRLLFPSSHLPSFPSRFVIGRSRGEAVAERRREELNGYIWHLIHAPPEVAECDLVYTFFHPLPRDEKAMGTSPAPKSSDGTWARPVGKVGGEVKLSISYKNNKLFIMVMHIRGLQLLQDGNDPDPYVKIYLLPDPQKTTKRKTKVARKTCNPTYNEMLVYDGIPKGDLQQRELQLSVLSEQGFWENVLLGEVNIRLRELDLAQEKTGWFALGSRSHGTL", "assay": "PI3-kinase C2β (type II PI3-kinase beta) kinase assay", "assay_type": "biochemical", "description": "Compounds are tested in C.1.1. PI kinase assays as described by Shokat et al., “A membrane capture assay for lipid kinase activity.” Nat. Protoc. 2007; 2(10):2459-66."}, "[1]": {"system": "PI(4)P and PI(4,5)P2 in Huh7.5 cells", "assay": "Immunofluorescence of intracellular PI(4)P and PI(4,5)P2 pools in Huh7.5 cells", "assay_type": "cell-based", "description": "(§1) FIG. 1 illustrates that the exemplary compound PT423 decreases PI(4)P (top panels) and PI(4,5)P2 (bottom panels) in a dose-dependent manner. Left panels: uninfected Huh7.5 cells; right panels: HCV-infected Huh7.5 cells. Cells were treated with the indicated concentrations of PT423 or vehicle control, and analyzed by immunofluorescence with antibodies to PI(4)P or PI(4,5)P2 (green) along with an antibody to calnexin (red) to control for ER morphology.\nTo further confirm its mechanism of action the effect of PT423 on PI-4 levels was determined in cells using immunofluorescence to monitor the intracellular localized pools of PI-4. The effect of PT423 on intracellular pools of PIP2 was tested, which were predicted to be similarly sensitive to inhibition using PT423.\nas §1, with “that” for “that the exemplary compound”"}, "p110α-p85 complex": {"biological_target": "p110α-p85 complex (Homo sapiens, UniProt P42336)", "sequence (P42336 whole entry)": "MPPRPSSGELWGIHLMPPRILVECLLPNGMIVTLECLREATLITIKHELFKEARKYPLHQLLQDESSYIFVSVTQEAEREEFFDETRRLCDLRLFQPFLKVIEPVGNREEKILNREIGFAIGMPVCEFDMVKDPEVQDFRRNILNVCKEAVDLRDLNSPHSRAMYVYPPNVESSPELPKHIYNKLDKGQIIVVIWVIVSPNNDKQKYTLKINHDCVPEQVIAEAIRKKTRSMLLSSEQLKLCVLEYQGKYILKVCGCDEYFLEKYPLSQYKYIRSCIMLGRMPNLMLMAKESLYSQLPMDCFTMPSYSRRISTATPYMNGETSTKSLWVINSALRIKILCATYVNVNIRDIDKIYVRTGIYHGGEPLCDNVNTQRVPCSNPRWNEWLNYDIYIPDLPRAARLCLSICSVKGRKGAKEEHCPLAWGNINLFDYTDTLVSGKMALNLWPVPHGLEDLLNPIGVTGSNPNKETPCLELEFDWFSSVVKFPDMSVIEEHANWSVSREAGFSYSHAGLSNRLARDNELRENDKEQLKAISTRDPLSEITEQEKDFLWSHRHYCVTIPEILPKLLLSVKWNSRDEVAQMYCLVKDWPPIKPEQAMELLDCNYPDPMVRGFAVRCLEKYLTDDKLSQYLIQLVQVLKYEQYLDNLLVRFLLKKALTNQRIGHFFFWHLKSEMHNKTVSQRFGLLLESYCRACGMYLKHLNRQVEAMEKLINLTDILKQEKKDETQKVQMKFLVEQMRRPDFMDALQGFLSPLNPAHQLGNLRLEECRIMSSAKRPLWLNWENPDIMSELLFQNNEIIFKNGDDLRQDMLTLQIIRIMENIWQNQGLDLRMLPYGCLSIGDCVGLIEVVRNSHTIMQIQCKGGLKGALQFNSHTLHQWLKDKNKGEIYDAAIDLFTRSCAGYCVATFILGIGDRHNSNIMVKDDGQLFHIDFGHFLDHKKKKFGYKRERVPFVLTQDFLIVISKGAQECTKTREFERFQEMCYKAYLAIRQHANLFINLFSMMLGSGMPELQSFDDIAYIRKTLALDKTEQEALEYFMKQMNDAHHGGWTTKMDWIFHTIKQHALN", "sequence (P27986 whole entry partner)": "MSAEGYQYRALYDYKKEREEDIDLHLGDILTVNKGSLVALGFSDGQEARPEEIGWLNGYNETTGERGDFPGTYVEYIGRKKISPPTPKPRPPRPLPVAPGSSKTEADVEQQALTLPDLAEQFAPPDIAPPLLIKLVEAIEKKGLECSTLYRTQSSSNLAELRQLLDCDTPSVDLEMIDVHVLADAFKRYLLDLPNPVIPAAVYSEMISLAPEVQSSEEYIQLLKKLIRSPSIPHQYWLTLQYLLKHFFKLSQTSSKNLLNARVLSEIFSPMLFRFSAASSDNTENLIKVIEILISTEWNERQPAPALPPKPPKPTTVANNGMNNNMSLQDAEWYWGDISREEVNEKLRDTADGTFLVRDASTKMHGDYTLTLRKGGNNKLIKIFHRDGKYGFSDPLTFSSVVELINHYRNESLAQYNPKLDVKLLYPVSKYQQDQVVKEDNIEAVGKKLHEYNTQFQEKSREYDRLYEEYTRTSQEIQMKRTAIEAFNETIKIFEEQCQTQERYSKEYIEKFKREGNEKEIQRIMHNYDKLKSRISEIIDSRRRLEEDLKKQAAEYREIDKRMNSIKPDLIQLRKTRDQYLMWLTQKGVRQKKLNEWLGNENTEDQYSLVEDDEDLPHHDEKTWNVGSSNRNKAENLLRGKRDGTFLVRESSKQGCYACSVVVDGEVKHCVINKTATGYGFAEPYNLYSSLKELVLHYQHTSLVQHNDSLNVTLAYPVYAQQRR", "assay": "PI3-kinase p110α-p85 complex lipid kinase assay", "assay_type": "biochemical", "details": "read-out: IC50 PI3K 110a", "description": "(§2) In the assays described here, p110α-p85 complex and p110γ were acquired from Millipore. Assays were performed with La-phosphatidylinositol (Avanti) as described in Knight et al. Nat. Protoc. […] Inhibitor series were prepared 10% DMSO as 5× stocks for the assay. […] COS-7 cells were cultured in 10 cm dishes and transfected at 70% confluence with 10 μg of plasmid DNA (HA-tagged bovine PI4KIIIβ, HA-tagged human PI4KIIIα) using Lipofectamine 2000 and 5 ml Opti-MEM following the manufacturer's instructions. After 5 hours the transfection medium was replaced with 10 ml complete DMEM. 36 hrs post transfection, cells were washed once with 5 ml PBS (pH 7.4) and lysed in 1 ml of lysis buffer (1) on ice. […] To the lysates was added 200 μl of protein G Sepharose 4 fast flow beads that were prewashed with PBS and lysis buffer and 2 μg of anti-HA antibody. The tubes were then incubated overnight at 4 degrees C. in a tube rotator. […] Kinase reactions were run in a mixture of 45 μL of PI buffer (1 mM PI in kinase buffer), 10 μL of immunoprecipitated beads, 2 μL of inhibitors (dissolved and diluted in DMSO) or DMSO and 5 μL of [γ-^32P]-ATP (1 mM and 2 μCi/tube). The immunoprecipitates in PI buffer were pre-incubated with the drugs for 20 min prior the initiation of kinase reaction by adding ATP and the reactions were carried out for 30 min in 15 ml polypropolyne tubes. Reactions were terminated by addition of 3 ml of CHCl3:CH3OH:HCl (200:100:0.75) followed by 0.6 ml of 0.6N HCl to induce phase separation. The mixtures were vortexed, centrifuged at 2000 rpm for 2 min and the upper phase was discarded. To the lower phase was added 1.5 ml of CHCl3:CH3OH:0.6N HCl (3:48:47) and the mixture vortexed and centrifuged at 2000 rpm for 2 min. The lower phase was then transferred to counting vials and evaporated. Samples were counted in a scintillation beta counter after adding 5 ml of Instafluor (Perkin-Elmer).\n(§3) Compounds are tested in C.1.1. PI kinase assays as described by Shokat et al., “A membrane capture assay for lipid kinase activity.” Nat. Protoc."}, "p110γ": {"biological_target": "p110γ (Homo sapiens, UniProt P48736)", "sequence (P48736 whole entry, species assumed)": "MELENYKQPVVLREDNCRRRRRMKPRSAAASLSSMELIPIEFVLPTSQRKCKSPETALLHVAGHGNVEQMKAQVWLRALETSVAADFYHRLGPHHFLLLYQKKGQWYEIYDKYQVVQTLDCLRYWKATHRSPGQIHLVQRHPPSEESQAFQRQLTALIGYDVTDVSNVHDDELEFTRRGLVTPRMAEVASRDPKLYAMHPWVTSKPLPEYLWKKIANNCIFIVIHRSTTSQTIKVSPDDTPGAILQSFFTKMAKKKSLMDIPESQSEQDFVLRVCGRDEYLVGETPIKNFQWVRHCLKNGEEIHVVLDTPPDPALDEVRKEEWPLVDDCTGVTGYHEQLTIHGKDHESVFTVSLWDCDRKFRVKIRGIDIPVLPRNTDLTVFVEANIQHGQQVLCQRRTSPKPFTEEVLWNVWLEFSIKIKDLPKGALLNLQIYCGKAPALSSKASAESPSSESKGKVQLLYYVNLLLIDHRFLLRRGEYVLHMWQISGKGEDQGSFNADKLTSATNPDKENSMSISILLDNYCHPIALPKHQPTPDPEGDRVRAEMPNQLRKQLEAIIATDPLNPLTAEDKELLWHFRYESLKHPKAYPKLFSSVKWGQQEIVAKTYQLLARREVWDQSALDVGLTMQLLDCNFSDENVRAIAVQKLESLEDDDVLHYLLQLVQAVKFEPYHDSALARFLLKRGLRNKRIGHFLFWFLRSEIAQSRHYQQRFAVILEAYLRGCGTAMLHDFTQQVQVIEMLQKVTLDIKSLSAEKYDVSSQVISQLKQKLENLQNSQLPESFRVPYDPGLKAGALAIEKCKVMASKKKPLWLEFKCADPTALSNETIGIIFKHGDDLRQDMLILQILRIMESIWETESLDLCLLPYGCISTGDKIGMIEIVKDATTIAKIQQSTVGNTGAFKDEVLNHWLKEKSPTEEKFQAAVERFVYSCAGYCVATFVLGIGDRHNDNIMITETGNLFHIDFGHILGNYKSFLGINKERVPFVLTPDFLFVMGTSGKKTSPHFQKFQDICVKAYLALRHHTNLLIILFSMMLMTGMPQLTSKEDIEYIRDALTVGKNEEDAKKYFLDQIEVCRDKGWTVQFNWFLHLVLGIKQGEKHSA", "assay": "PI3-kinase p110γ lipid kinase assay", "assay_type": "biochemical", "details": "read-out: IC50 PI3K 110g", "description": "as §2, §3"}, "[2]": {"assay": "Cytotoxicity CC50 in Huh7.5 cells", "assay_type": "cell-based", "details": "human, Huh7.5 cells", "description": "For all of the assays described above, EC50, EC90, and CC50 values are determined, and experiments are performed starting drug treatments at various times post initiation of infection to help localize the most sensitive aspects of each pathogen's life cycle to PI 4-kinase inhibition."}, "PI3K C2a": {"biological_target": "PI3K C2a (Homo sapiens, UniProt O00443)", "assay": "PI3-kinase C2α (type II PI3-kinase alpha) kinase assay", "assay_type": "biochemical", "description": "as §3"}, "[3]": {"details": "uninfected and HCV-infected Huh7.5 cells, immunofluorescence, FIG. 1"}}}
{"smiles": "COc1ccc(-c2sc(NC(=O)C3CCCC3)nc2C)cc1S(=O)(=O)Nc1ccc(O)cc1", "note": "[PT423]", "values": [{"measurement": "EC50", "setting": "human rhinovirus 14", "value": 0.32, "unit": "nM"}, {"measurement": "IC50", "setting": "PI3K C2b", "value": 28, "unit": "nM"}, {"measurement": "effect on ER (calnexin co-staining)", "setting": "[1]; control for non-specific effects on the cells", "value": "absence of any detectable effects on the ER"}, {"measurement": "effect on PI-4 (PI(4)P) levels", "setting": "[1]; [3]", "value": "dose-dependent decrease"}, {"measurement": "effect on PIP2 (PI(4,5)P2) levels", "setting": "[1]; [3]", "value": "dose-dependent decrease"}, {"measurement": "IC50", "setting": "p110α-p85 complex", "value": 65, "unit": "nM"}, {"measurement": "IC50", "setting": "p110γ", "value": 64, "unit": "nM"}, {"measurement": "CC50", "setting": "[2]", "value": "> 20000", "unit": "nM"}, {"measurement": "IC50", "setting": "PI3K C2a", "value": "> 10000", "unit": "nM"}]}
